Experimental data from paper PMC3744640 (Bioorganic & medicinal chemistry letters, 2013).
Entries after “also recorded” stand apart in the source; their conditions may differ.

Legend:
VEGFR-2 = VEGFR-2 (Homo sapiens, UniProt P35968); assay: VEGFR-2 inhibition at a single concentration; type: biochemical; conditions: 10 μM concentration of test compound
C-RAF = C-RAF (Homo sapiens, UniProt P04049); assay: C-RAF kinase inhibition; type: biochemical; conditions: compared with t-CUPM
10 recombinant kinases = conditions: 10 μM concentration
[1] = test system: lipopolysaccharide-induced inflammation; conditions: lipopolysaccharide-induced inflammation murine model; cited from earlier work
Huh-7 = assay: growth inhibition of Huh-7 liver carcinoma cells; type: cell-based; conditions: up to 100 μM
HepG2 = assay: growth inhibition of HepG2 liver carcinoma cells; type: cell-based; conditions: up to 100 μM

Chain of VEGFR-2 (P35968 20-1356): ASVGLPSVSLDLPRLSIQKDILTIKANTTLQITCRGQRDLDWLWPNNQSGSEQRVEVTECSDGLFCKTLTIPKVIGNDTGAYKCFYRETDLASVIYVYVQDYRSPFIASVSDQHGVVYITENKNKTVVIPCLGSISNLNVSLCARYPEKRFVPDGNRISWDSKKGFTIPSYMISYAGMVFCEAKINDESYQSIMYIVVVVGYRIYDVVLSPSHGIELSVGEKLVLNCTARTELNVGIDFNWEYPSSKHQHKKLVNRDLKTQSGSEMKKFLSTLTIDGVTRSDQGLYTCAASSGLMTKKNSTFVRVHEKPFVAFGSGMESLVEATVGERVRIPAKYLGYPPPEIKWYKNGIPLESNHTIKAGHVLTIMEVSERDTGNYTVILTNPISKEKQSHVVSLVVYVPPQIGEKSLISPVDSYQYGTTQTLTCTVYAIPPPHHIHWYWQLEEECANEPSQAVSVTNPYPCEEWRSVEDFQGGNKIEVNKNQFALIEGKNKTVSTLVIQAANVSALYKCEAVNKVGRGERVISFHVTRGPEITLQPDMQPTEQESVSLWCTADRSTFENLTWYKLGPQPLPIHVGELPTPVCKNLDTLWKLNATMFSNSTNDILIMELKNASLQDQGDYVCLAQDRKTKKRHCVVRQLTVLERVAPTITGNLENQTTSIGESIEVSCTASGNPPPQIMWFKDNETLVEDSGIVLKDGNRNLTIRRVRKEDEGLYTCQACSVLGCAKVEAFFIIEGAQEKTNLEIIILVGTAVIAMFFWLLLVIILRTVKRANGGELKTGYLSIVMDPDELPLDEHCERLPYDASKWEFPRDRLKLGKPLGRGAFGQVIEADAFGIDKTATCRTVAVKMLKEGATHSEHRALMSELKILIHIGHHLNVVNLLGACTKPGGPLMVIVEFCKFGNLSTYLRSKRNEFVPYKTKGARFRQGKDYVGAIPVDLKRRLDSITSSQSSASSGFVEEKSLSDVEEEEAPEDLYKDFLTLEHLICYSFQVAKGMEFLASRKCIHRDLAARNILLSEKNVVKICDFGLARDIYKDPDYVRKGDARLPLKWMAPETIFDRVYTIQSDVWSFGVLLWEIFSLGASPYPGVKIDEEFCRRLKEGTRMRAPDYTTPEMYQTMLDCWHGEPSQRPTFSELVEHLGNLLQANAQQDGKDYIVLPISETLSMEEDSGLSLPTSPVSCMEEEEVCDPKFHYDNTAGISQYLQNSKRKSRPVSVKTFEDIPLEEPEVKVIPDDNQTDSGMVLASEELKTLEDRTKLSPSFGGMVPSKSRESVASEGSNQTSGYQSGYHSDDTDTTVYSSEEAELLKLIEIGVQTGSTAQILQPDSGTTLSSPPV
Chain of C-RAF (P04049 whole entry): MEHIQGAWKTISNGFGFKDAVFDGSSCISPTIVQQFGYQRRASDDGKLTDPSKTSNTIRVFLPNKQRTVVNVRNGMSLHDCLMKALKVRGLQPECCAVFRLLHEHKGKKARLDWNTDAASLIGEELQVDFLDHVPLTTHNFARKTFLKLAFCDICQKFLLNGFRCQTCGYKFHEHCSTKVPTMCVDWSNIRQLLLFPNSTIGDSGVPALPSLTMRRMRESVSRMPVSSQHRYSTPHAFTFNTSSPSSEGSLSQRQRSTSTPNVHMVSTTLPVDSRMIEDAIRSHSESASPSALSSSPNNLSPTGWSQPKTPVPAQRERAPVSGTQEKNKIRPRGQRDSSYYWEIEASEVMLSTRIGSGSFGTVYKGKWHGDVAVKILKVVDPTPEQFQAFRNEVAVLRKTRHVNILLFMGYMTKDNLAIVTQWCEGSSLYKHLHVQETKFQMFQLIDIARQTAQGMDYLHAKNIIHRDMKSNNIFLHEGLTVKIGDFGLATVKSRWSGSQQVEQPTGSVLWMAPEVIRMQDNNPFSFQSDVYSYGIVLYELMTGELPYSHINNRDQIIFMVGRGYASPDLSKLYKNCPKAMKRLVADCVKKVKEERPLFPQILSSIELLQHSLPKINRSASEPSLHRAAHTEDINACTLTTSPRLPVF

SMILES | Percent inhibition against VEGFR-2 (in words) (VEGFR-2) | other results
O=C(Nc1ccc(OC(F)(F)F)cc1)N[C@H]1CC[C@H](Oc2ccc(C(=O)O)cc2)CC1 [compound 12, trans-4-{4-[3-(4-trifluoromethoxy-phenyl)-ureido]-cyclohexyloxy}-benzoic acid] | – | multi-kinase inhibition (in words) (10 recombinant kinases): no significant multi-kinase inhibition
CNC(=O)c1cc(Oc2ccc(NC(=O)Nc3ccc(Cl)c(C(F)(F)F)c3)cc2)ccn1 [sorafenib] | – | anti-inflammatory response (in words) [1]: exhibits similar anti-inflammatory responses as conventional sEH inhibitors
CS(=O)(=O)N1CCC(NC(=O)Nc2ccc(OC(F)(F)F)cc2)CC1 [TUPS] | – | effect on cell viability (in words) (Huh-7): no observable effects on cell viability; effect on cell viability (in words) (HepG2): no observable effects on cell viability
CNC(=O)c1cccc(O[C@H]2CC[C@H](NC(=O)Nc3ccc(Cl)c(C(F)(F)F)c3)CC2)c1 [compound 8] | – | Percent inhibition against VEGFR-2 (in words) (VEGFR-2; 10 µM): little inhibitory activity; also recorded: lack of VEGFR-2 inhibition

Continued, in another order:

Percent inhibition against VEGFR-2 (in words) (VEGFR-2) | SMILES | other results
lack of VEGFR-2 inhibition | O=C(Nc1ccc(Cl)c(C(F)(F)F)c1)N[C@H]1CC[C@H](Oc2cccc(C(=O)O)c2)CC1 [compound 7, trans-3-{4-[3-(4-chloro-3-trifluoromethyl-phenyl)-ureido]-cyclohexyloxy}-benzoic acid] | –
displayed potency towards VEGFR-2 | CNC(=O)c1ccc(O[C@H]2CC[C@H](NC(=O)Nc3ccc(Cl)c(C(F)(F)F)c3)CC2)cn1 [compound 9] | fold less activity against C-RAF relative to t-CUPM (C-RAF): 2.3 fold
displayed potency towards VEGFR-2 | CNC(=O)c1cc(Oc2ccc(NC(=O)Nc3ccc(OC(F)(F)F)cc3)cc2)ccn1 [compound 22] | –
displayed potency towards VEGFR-2 | CNC(=O)c1cc(O[C@H]2CC[C@H](NC(=O)Nc3ccc(Cl)c(C(F)(F)F)c3)CC2)ccn1 [compound 4, trans-4-{4-[3-(4-chloro-3-trifluoromethyl-phenyl)-ureido]-cyclohexyloxy}-pyridine-2-carboxylic acid methylamide] | –
lack of VEGFR-2 inhibition | CNC(=O)c1cc(O[C@H]2CC[C@@H](NC(=O)Nc3ccc(Cl)c(C(F)(F)F)c3)CC2)ccn1 [compound 17] | –
displayed potency towards VEGFR-2 | CNC(=O)c1cc(Oc2ccc(NC(=O)NC34CC5CC(CC(C5)C3)C4)cc2)ccn1 [compound 21] | –
